Laboratory results: patent publication US12528815B2, “5-amino-8-(4-pyridyl)-[1,2,4]triazolo[4,3-c]pyrimidin-3-one compounds for use against cancer” (Nxera Pharma UK Limited, priority 2020, dated 2026)

Assays:
[1] = biological target: T1, human adenosine A2A receptor (Homo sapiens, UniProt P29274); assay: Inhibition binding assay, human adenosine A2A receptor membranes, [3H]ZM241385; details: 1 nM [3H]ZM241385, HEK293-hA2A membranes, 25° C., 1 h; IC50 converted to Ki with Cheng-Prusoff; read-out: A2A pKi (converted)
T1 construct: expressed in transfected cells; host or cells: HEK293 cells infected with BacMam
T1 sequence (P29274 whole entry): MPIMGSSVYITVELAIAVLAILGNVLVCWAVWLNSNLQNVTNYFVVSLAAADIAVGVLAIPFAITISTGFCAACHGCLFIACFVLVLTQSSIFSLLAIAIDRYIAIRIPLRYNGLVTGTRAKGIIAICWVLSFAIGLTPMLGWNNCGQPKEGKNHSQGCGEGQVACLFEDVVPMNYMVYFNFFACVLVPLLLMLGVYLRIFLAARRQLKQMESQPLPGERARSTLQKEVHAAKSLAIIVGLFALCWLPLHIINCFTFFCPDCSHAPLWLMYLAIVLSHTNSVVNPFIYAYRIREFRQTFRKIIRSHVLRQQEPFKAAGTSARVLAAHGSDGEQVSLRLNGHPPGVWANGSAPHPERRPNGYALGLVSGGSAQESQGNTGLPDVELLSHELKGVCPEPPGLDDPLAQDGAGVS
In short: (§1)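 Membranes from BacMam-infected HEK293 cells (0.2 μg A2A, 1.4 μg A1) incubated 1 h at 25° C with test compound and 1 nM [3H]ZM241385 (A2A; 50 mM Tris-HCl pH 7.4) or [3H]DPCPX (A1; plus 100 mM NaCl, 10 mM MgCl2). Nonspecific: 1 μM CGS15943 or DPCPX. Filtration, scintillation; IC50 converted to Ki via Cheng-Prusoff.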

human CB1 receptor = biological target: T2, human CB1 receptor (Homo sapiens, UniProt P21554); assay: CB1 receptor antagonism, agonist-induced cAMP modulation (HTRF) in transfected CHO cells; format: cell-based; details: read-out: Antag IC50
T2 construct: expressed in transfected cells; host or cells: CHO cells
T2 sequence (P21554 whole entry): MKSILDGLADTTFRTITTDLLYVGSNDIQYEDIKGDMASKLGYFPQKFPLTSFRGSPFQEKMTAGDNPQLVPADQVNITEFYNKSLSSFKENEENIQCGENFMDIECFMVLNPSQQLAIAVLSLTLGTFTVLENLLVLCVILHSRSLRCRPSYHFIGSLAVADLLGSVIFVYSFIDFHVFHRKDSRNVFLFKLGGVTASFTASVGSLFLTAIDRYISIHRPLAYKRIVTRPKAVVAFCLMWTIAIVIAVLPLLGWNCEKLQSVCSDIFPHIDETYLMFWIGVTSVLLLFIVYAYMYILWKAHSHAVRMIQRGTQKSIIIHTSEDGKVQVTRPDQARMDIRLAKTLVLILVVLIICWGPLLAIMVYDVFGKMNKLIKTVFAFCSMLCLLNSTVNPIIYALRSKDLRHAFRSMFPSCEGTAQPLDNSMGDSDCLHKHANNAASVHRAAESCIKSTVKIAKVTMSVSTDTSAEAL
Experimental: Receptor antagonism: Evaluation of the antagonist activity of compounds at the human CB1 receptor expressed in transfected CHO cells, determined by measuring their effects on agonist-induced cAMP modulation using the HTRF detection method.
Thereafter, the reference agonist CP 55940 and the adenylyl cyclase activator NKH 477 are added at respective final concentrations of 3 nM and 3 μM.
For basal control measurements, CP 55940 is omitted from the wells containing 3 μM AM 281.
Following 20 min incubation at 37° C., the cells are lysed and the fluorescence acceptor (D2-labeled cAMP) and fluorescence donor (anti-cAMP antibody labeled with europium cryptate) are added.
After 60 min at room temperature, the fluorescence transfer is measured at λex=337 nm and λem=620 and 665 nm using a microplate reader (Rubystar, BMG). The cAMP concentration is determined by dividing the signal measured at 665 nm by that measured at 620 nm (ratio).
The standard reference antagonist is AM 281, which is tested in each experiment at several concentrations to generate a concentration-response curve from which its IC50 value is calculated.

[2] = biological target: T3, human adenosine A1 receptor (Homo sapiens, UniProt P30542); assay: Inhibition binding assay, human adenosine A1 receptor membranes, [3H]DPCPX; details: 1 nM [3H]DPCPX, 25° C., 1 h; IC50 converted to Ki with Cheng-Prusoff; read-out: A1 pKi (converted)
T3 construct: expressed in transfected cells; host or cells: HEK293 cells infected with BacMam (the same paragraph also labels the preparation CHO-hA1)
T3 sequence (P30542 1-326): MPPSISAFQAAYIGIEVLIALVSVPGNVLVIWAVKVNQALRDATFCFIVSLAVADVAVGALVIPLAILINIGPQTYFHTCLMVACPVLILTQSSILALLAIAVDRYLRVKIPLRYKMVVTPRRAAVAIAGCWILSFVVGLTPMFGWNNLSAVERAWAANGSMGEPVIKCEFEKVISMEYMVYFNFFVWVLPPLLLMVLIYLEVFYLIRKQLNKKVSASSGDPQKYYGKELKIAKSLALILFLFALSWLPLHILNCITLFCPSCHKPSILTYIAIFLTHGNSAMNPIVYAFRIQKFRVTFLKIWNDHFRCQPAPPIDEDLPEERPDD
In short: as §1

[3] = biological target: T4, human CB-1 cannabinoid receptor (Homo sapiens, UniProt P21554); assay: CB1 receptor radioligand binding assay, [3H]CP 55940, transfected CHO cell membranes; details: 0.5 nM [3H]CP 55940, CHO membrane homogenates, 120 min at 37° C.
T4 construct: expressed in transfected cells; host or cells: CHO cells
T4 sequence (P21554 whole entry): as the sequence (P21554 whole entry) above
Experimental: Nonspecific binding is determined in the presence of 10 μM WIN 55212-2.
Following incubation, the samples are filtered rapidly under vacuum through glass fiber filters (GF/B, Packard) presoaked with 0.3% PEI and rinsed several times with an ice-cold buffer containing 50 mM Tris-HCl (pH 7.4) and 0.5% BSA using a 96-sample cell harvester (Unifilter, Packard). The filters are dried then counted for radioactivity in a scintillation counter (Topcount, Packard) using a scintillation cocktail (Microscint 0, Packard).
The standard reference compound is CP 55940 which is tested in each experiment at several concentrations to obtain a competition curve from which its IC50 is calculated.

Compound | Ki [1] | IC50 (human CB1 receptor) | Ki [2] | Ki [3]
Nc1nc(-c2ccccc2)c(-c2cc(CO)nc(C(F)(F)F)c2)c2nn(CCC(F)(F)F)c(=O)n12 [Example 2-53, 5-amino-8-[2-(hydroxymethyl)-6-(trifluoromethyl)-4-pyridyl]-7-phenyl-2-(3,3,3-trifluoropropyl)-[1,2,4]triazolo[4,3-c]pyrimidin-3-one] | 1.26 nM | > 100 µM | 501 nM | 37.7 µM
Cc1cc(-c2c(-c3ccccc3)nc(N)n3c(=O)n(CC4CCOCC4)nc23)cc(C)n1 [Example 2-73, 5-amino-8-(2,6-dimethyl-4-pyridyl)-7-phenyl-2-(tetrahydropyran-4-ylmethyl)-[1,2,4]triazolo[4,3-c]pyrimidin-3-one] | 2 nM | > 100 µM | 1000 nM | 52 µM
Cc1cc(-c2c(-c3ccccc3)nc(N)n3c(=O)n(CC4CCC(F)(F)C4)nc23)cc(C)n1 (stereo not shown) [Example 2-26, 5-amino-2-[(3,3-difluorocyclopentyl)methyl]-8-(2,6-dimethyl-4-pyridyl)-7-phenyl-[1,2,4]triazolo[4,3-c]pyrimidin-3-one] | 0.398 nM | 3.5 µM | 100 nM | 3.9 µM
Cc1cc(-c2c(-c3ccc(F)cn3)nc(N)n3c(=O)n(CCC(F)(F)F)nc23)cc(C)n1 [Example 2-40, 5-amino-8-(2,6-dimethyl-4-pyridyl)-7-(5-fluoro-2-pyridyl)-2-(3,3,3-trifluoropropyl)-[1,2,4]triazolo[4,3-c]pyrimidin-3-one] | 39.8 nM | > 100 µM | > 3160 nM | 75.7 µM
Cc1cc(-c2c(-c3ccccc3)nc(N)n3c(=O)n(C(C)c4ccc(F)cc4F)nc23)cc(C)n1 (stereo not shown) [Example 1-11, 5-amino-2-[1-(2,4-difluorophenyl)ethyl]-8-(2,6-dimethyl-4-pyridyl)-7-phenyl-[1,2,4]triazolo[4,3-c]pyrimidin-3-one] | 6.31 nM | 5 µM | 398 nM | 2.6 µM
COc1cc(-c2c(-c3ccccc3)nc(N)n3c(=O)n(Cc4ccc(F)c(N)n4)nc23)cc(CO)n1 [Example 1-64, 5-amino-2-[(6-amino-5-fluoro-2-pyridyl)methyl]-8-[2-(hydroxymethyl)-6-methoxy-4-pyridyl]-7-phenyl-[1,2,4]triazolo[4,3-c]pyrimidin-3-one] | 0.316 nM | > 100 µM | 158 nM | 23.5 µM
COc1ncccc1Cn1nc2c(-c3cc(C)nc(CO)c3)c(-c3ccccc3)nc(N)n2c1=O [Example 1-57, 5-amino-8-[2-(hydroxymethyl)-6-methyl-4-pyridyl]-2-[(2-methoxy-3-pyridyl)methyl]-7-phenyl-[1,2,4]triazolo[4,3-c]pyrimidin-3-one] | 0.631 nM | > 100 µM | 126 nM | 62.6 µM
Cc1cc(-c2c(-c3ccccc3)nc(N)n3c(=O)n(CCc4ccccc4)nc23)cc(C)n1 [Example 1-80, 5-amino-8-(2,6-dimethyl-4-pyridyl)-7-phenyl-2-(2-phenylethyl)-[1,2,4]triazolo[4,3-c]pyrimidin-3-one] | 2 nM | 10.2 µM | 126 nM | 10.8 µM
COc1ncc(F)cc1Cn1nc2c(-c3cc(C)nc(C)c3)c(-c3ccccc3)nc(N)n2c1=O [Example 1-40, 5-amino-8-(2,6-dimethyl-4-pyridyl)-2-[(5-fluoro-2-methoxy-3-pyridyl)methyl]-7-phenyl-[1,2,4]triazolo[4,3-c]pyrimidin-3-one] | 0.794 nM | 7.4 µM | 39.8 nM | 24.1 µM
Cc1cc(-c2c(-c3ccccc3)nc(N)n3c(=O)n(C4CCCN(C(=O)OC(C)(C)C)C4)nc23)cc(C)n1 (stereo not shown) [Example 2-54, tert-butyl 3-[5-amino-8-(2,6-dimethyl-4-pyridyl)-3-oxo-7-phenyl-[1,2,4]triazolo[4,3-c]pyrimidin-2-yl]piperidine-1-carboxylate] | 6.31 nM | 1.1 µM | 398 nM | 8.2 µM
Cc1cc(-c2c(-c3ccccc3)nc(N)n3c(=O)n(CC(C)C)nc23)cc(C)[n+]1[O-] [Example 2-57, 5-amino-8-(2,6-dimethyl-1-oxido-pyridin-1-ium-4-yl)-2-isobutyl-7-phenyl-[1,2,4]triazolo[4,3-c]pyrimidin-3-one] | 10 nM | > 100 µM | 251 nM | 72.7 µM
COc1cc(-c2c(-c3ccccc3)nc(N)n3c(=O)n(Cc4ccc(Cl)cn4)nc23)cc(CO)n1 [Example 1-65, 5-amino-2-[(5-chloro-2-pyridyl)methyl]-8-[2-(hydroxymethyl)-6-methoxy-4-pyridyl]-7-phenyl-[1,2,4]triazolo[4,3-c]pyrimidin-3-one] | 0.794 nM | 9.3 µM | 794 nM | 19.9 µM
Cc1cc(-c2c(-c3ccccc3)nc(N)n3c(=O)n(CCOC(F)(F)F)nc23)cc(C)n1 [Example 2-30, 5-amino-8-(2,6-dimethyl-4-pyridyl)-7-phenyl-2-[2-(trifluoromethoxy)ethyl]-[1,2,4]triazolo[4,3-c]pyrimidin-3-one] | 2.51 nM | 19.5 µM | 251 nM | 26.5 µM
Cc1cc(-c2c(-c3ccccc3)nc(N)n3c(=O)n(CCC(F)(F)F)nc23)cc(CO)n1 [Example 2-51, 5-amino-8-[2-(hydroxymethyl)-6-methyl-4-pyridyl]-7-phenyl-2-(3,3,3-trifluoropropyl)-[1,2,4]triazolo[4,3-c]pyrimidin-3-one] | 1.26 nM | > 100 µM | 501 nM | 85 µM
Cc1cc(-c2c(-c3ccccc3)nc(N)n3c(=O)n(Cc4ccc(F)cc4)nc23)cc(C)n1 [Example 1-1, 5-amino-8-(2,6-dimethyl-4-pyridyl)-2-[(4-fluorophenyl)methyl]-7-phenyl-[1,2,4]triazolo[4,3-c]pyrimidin-3-one] | 0.398 nM | 1.7 µM | 31.6 nM | 3.6 µM
Cc1cc(-c2c(-c3ccccc3)nc(N)n3c(=O)n(Cc4ccc(F)cn4)nc23)cc(CO)n1 [Example 1-44, 5-amino-2-[(5-fluoro-2-pyridyl)methyl]-8-[2-(hydroxymethyl)-6-methyl-4-pyridyl]-7-phenyl-[1,2,4]triazolo[4,3-c]pyrimidin-3-one] | 1.58 nM | 63.3 µM | 398 nM | 40 µM
Cc1cc(-c2c(-c3ccccc3)nc(N)n3c(=O)n(C[C@@H]4COCCN4Cc4ccccc4)nc23)cc(C)n1 [Example 1-101, 5-amino-2-[[(3R)-4-benzylmorpholin-3-yl]methyl]-8-(2,6-dimethyl-4-pyridyl)-7-phenyl-[1,2,4]triazolo[4,3-c]pyrimidin-3-one] | 0.631 nM | 2.7 µM | 10 nM | 4 µM
Cc1cc(-c2c(-c3ccccc3)nc(N)n3c(=O)n(Cc4ccc(F)cn4)nc23)cc(C)[n+]1[O-] [Example 1-42, 5-amino-8-(2,6-dimethyl-1-oxido-pyridin-1-ium-4-yl)-2-[(5-fluoro-2-pyridyl)methyl]-7-phenyl-[1,2,4]triazolo[4,3-c]pyrimidin-3-one] | 15.8 nM | > 100 µM | 251 nM | 73.4 µM
Nc1nc(Cn2nc3c(-c4cc(Cl)nc(CO)c4)c(-c4ccccc4)nc(N)n3c2=O)ccc1F [Example 1-70, 5-amino-2-[(6-amino-5-fluoro-2-pyridyl)methyl]-8-[2-chloro-6-(hydroxymethyl)-4-pyridyl]-7-phenyl-[1,2,4]triazolo[4,3-c]pyrimidin-3-one] | 0.316 nM | > 100 µM | 50.1 nM | 61.3 µM
